# Data: patent US20260199323A1, “LIGAND COMPOUNDS FOR E3 UBIQUITIN LIGASE, PROTEIN DEGRADERS DEVELOPED ON BASIS OF LIGAND COMPOUNDS, AND USES THEREOF” (GLUETACS THERAPEUTICS (SHANGHAI) CO., LTD., priority 2021, published 2026)
# Like-named read-outs stand apart in the source and are kept apart here.
# Assays:
# CCRF-CEM = test: CCK-8 tumor cell proliferation, CCRF-CEM; assay type: cell-based, Human; conditions: CCRF-CEM, read-out: IC50 inhibiting proliferation of tumor cells, CCRF-CEM
# Procedure, shortened: (§1)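 Viability determined colorimetrically with CCK-8 following compound treatment. Dosing began 24 h post-plating using ten 5-fold dilutions capped at 10 μM; growth-inhibition curves yielded IC50.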
# SR = test: CCK-8 tumor cell proliferation, SR; assay type: cell-based, Human; conditions: Homo sapiens, SR, read-out: IC50 inhibiting proliferation of tumor cells, SR
# Procedure, shortened: as §1
# MM.1S = test: CCK-8 tumor cell proliferation, MM.1S; assay type: cell-based; conditions: Homo sapiens, MM1.S, MM.1S, read-out: IC50 inhibiting proliferation of tumor cells, MM.1S
# Procedure, shortened: as §1
# MDA-MB-231 = test: CCK-8 tumor cell proliferation, MDA-MB-231; assay type: cell-based, Human; conditions: Homo sapiens, MDA-MB-231, read-out: IC50 inhibiting proliferation of tumor cells, MDA-MB-231
# Procedure, shortened: as §1
# HCC827 = test: CCK-8 tumor cell proliferation, HCC827; assay type: cell-based, Human; conditions: Homo sapiens, HCC827, read-out: IC50 inhibiting proliferation of tumor cells, HCC827
# Protocol: The tumor cells used herein were cultured in a cell culture medium listed in table 4 at 37° C. in an incubator with 5% CO2.
# (§2) After 24 h, 100 μL of the inoculated cells were treated with 0.5 μL of the compounds of the present disclosure (including the compounds in Tables 1 and 3, and compounds of examples) at 10 different successively decreasing concentrations (starting at the highest concentration of 10 μM; 5-fold serial dilutions). After the cells were treated with the compounds of the present disclosure for a period of time, the cell viability detection reagent was added to the culture medium for cell viability assessment according to the instructions provided with the CCK-8 kit. […] The growth inhibition of the compounds of the present disclosure on cells was plotted by Prism Graphpad software, and the IC50 values of the compounds of the present disclosure were calculated therefrom.
# LNcap = test: CCK-8 tumor cell proliferation, LNcap; assay type: cell-based, Human
# Protocol: (§3) The tumor cells used herein were cultured in a cell culture medium listed in table 4 at 37° C. in an incubator with 5% CO2. Prior to experimentation, all cells used were correctly identified by STR profiling, and tested negative for mycoplasma through routine screenings.
# as §2, with “IC50 values of the compounds of the present disclosure (including the compounds in Tables 1 and 3, and compounds of examples) were measured using the Meilun Cell Counting Kit-8 kit from Dalian Meilun Biotech Co., Ltd. Assay details are as follows: tumor cells were seeded in a 96-well plate at a density listed in Table 5. After 24” for “After 24”
# PC-9 = test: CCK-8 tumor cell proliferation, PC-9; assay type: cell-based, Human; conditions: Homo sapiens; Table 15, ALK inhibitor based; PC-9; read-out: IC50 inhibiting proliferation of tumor cells, PC-9
# MM.1R = test: CCK-8 tumor cell proliferation, MM.1R; assay type: cell-based; conditions: Table 20, BCL-2 inhibitor based, read-out: IC50 inhibiting proliferation of tumor cells, MM.1R
# Protocol: as §3
# as §2, with “IC50 values of the compounds of the present disclosure (including the compounds in Tables 1 and 3, and compounds of examples) were measured using the Meilun Cell Counting Kit-8 kit from Dalian Meilun Biotech Co., Ltd. Assay details are as follows: tumor cells were seeded in a 96-well plate at a density listed in Table 5. After 24” for “After 24”
# Mino = test: CCK-8 tumor cell proliferation, Mino; assay type: cell-based, Human; conditions: Homo sapiens, Mino, read-out: IC50 inhibiting proliferation of tumor cells, Mino
# Procedure, shortened: as §1
# SU-DHL-4 = test: CCK-8 tumor cell proliferation, SU-DHL-4; assay type: cell-based, Human; conditions: Table 19, IRAK4 inhibitor based, read-out: IC50 inhibiting proliferation of tumor cells, SU-DHL-4
# Protocol: as §3
# as §2, with “IC50 values of the compounds of the present disclosure (including the compounds in Tables 1 and 3, and compounds of examples) were measured using the Meilun Cell Counting Kit-8 kit from Dalian Meilun Biotech Co., Ltd. Assay details are as follows: tumor cells were seeded in a 96-well plate at a density listed in Table 5. After 24” for “After 24”
# SW620 = test: CCK-8 tumor cell proliferation, SW620; assay type: cell-based, Human; conditions: Table 19, IRAK4 inhibitor based, SW620, read-out: IC50 inhibiting proliferation of tumor cells, SW620
# Procedure, shortened: as §1
# MV-4-11 = test: CCK-8 tumor cell proliferation, MV-4-11; assay type: cell-based, Human; conditions: Homo sapiens, MV4-11; Table 19, IRAK4 inhibitor based; MV-4-11; read-out: IC50 inhibiting proliferation of tumor cells, MV-4-11
# Protocol: as §3
# as §2, with “IC50 values of the compounds of the present disclosure (including the compounds in Tables 1 and 3, and compounds of examples) were measured using the Meilun Cell Counting Kit-8 kit from Dalian Meilun Biotech Co., Ltd. Assay details are as follows: tumor cells were seeded in a 96-well plate at a density listed in Table 5. After 24” for “After 24”
# CAL-62 = test: CCK-8 tumor cell proliferation, CAL-62; assay type: cell-based, Human; conditions: Table 19, IRAK4 inhibitor based, CAL-62, read-out: IC50 inhibiting proliferation of tumor cells, CAL-62
# Procedure, shortened: as §1
# Jurkat = test: CCK-8 tumor cell proliferation, Jurkat; assay type: cell-based, Human; conditions: Table 19, IRAK4 inhibitor based, read-out: IC50 inhibiting proliferation of tumor cells, Jurkat
# Procedure, shortened: as §1
# [1] = Table 20, BCL-2 inhibitor based
# [2] = Homo sapiens, Table 20, BCL-2 inhibitor based, LNcap, read-out: IC50 inhibiting proliferation of tumor cells, LNcap
# [3] = Homo sapiens, Table 20, BCL-2 inhibitor based
# [4] = Table 19, IRAK4 inhibitor based
smiles,measurement,setting,value
"CC1(C)CCC(CN2CCN(c3ccc(C(=O)NS(=O)(=O)c4ccc(NCC5CCOCC5)c([N+](=O)[O-])c4)c(Oc4cnc5[nH]ccc5c4)c3)CC2)=C(c2ccc(Cl)cc2)C1 [ABT-199, Venetoclax, reference compound]",IC50,"CCRF-CEM; Homo sapiens, Table 20, given as number",> 10000 nM
same,IC50,SR; [1],500 to 1000 nM
same,IC50,"MM.1S; Table 20, given as number",> 10000 nM
same,IC50,MDA-MB-231; [1],1000 to 5000 nM
same,IC50,HCC827; [1],5000 to 10000 nM
same,IC50,LNcap; [2],1000 to 5000 nM
"CCc1cc2c(cc1N1CCC(N(C)Cc3ccc4c(c3)CN(C3CCC(=O)NC3=O)C4=O)CC1)C(C)(C)c1[nH]c3cc(C#N)ccc3c1C2=O (centres unmarked) [GT-03474, 8-(4-(((2-(2,6-dioxopiperidin-3-yl)-1-oxoisoindolin-5-yl)methyl)(methyl)amino)piperidin-1-yl)-9-ethyl-6,6-dimethyl-11-oxo-6,11-dihydro-5H-benzo[b]carbazole-3-carbonitrile]",IC50,"SR; Table 15, ALK inhibitor based",< 50 nM
same,IC50,"MDA-MB-231; Table 15, ALK inhibitor based",1000 to 5000 nM
same,IC50,"HCC827; Table 15, ALK inhibitor based",1000 to 5000 nM
same,IC50,PC-9,500 to 1000 nM
"CC1(C)CCC(c2ccc(Cl)cc2)=C(CN2CCN(c3ccc(C(=O)NS(=O)(=O)c4ccc(N[C@H](CCN5CCN(Cc6ccc7c(c6F)CN(C6CCC(=O)NC6=O)C7=O)CC5)CSc5ccccc5)c(S(=O)(=O)C(F)(F)F)c4)cc3)CC2)C1 (stereo partly drawn) [GT-03478, 4-(4-((4′-chloro-4,4-dimethyl-3,4,5,6-tetrahydro-[1,1′-biphenyl]-2-yl)methyl)piperazin-1-yl)-N-((4-(((2R)-4-(4-((2-(2,6-dioxopiperidin-3-yl)-4-fluoro-1-oxoisoindolin-5-yl)methyl)piperazin-1-yl)-1-(phenylthio)butan-2-yl)amino)-3-((trifluoromethyl)sulfonyl)phenyl)sulfonyl)benzamide]",IC50,MM.1R,< 50 nM
same,IC50,CCRF-CEM; [3],< 50 nM
same,IC50,SR; [1],< 50 nM
same,IC50,MM.1S; [1],< 50 nM
same,IC50,MDA-MB-231; [1],< 50 nM
same,IC50,HCC827; [1],< 50 nM
same,IC50,LNcap; [2],< 50 nM
"CC1(C)CCC(c2ccc(Cl)cc2)=C(CN2CCN(c3ccc(C(=O)NS(=O)(=O)c4ccc(N[C@H](CCN5CCN(Cc6cc(F)c7c(c6)CN(C6CCC(=O)NC6=O)C7=O)CC5)CSc5ccccc5)c(S(=O)(=O)C(F)(F)F)c4)cc3)CC2)C1 (stereo partly drawn) [GT-03479, 4-(4-((4′-chloro-4,4-dimethyl-3,4,5,6-tetrahydro-[1,1′-biphenyl]-2-yl)methyl)piperazin-1-yl)-N-((4-(((2R)-4-(4-((2-(2,6-dioxopiperidin-3-yl)-7-fluoro-1-oxoisoindolin-5-yl)methyl)piperazin-1-yl)-1-(phenylthio)butan-2-yl)amino)-3-((trifluoromethyl)sulfonyl)phenyl)sulfonyl)benzamide]",IC50,MM.1R,< 50 nM
same,IC50,CCRF-CEM; [3],< 50 nM
same,IC50,SR; [1],< 50 nM
same,IC50,MM.1S; [1],< 50 nM
same,IC50,MDA-MB-231; [1],< 50 nM
same,IC50,HCC827; [1],100 to 500 nM
same,IC50,LNcap; [2],< 50 nM
"COc1cc(N2CCC(N(C)Cc3cc4c(cc3F)C(=O)N(C3CCC(=O)NC3=O)C4)CC2)ccc1Nc1ncc(Cl)c(Nc2ccccc2P(C)(C)=O)n1 (centres unmarked) [GT-03601, 3-(5-(((1-(4-((5-chloro-4-((2-(dimethylphosphoryl)phenyl)amino)pyrimidin-2-yl)amino)-3-methoxyphenyl)piperidin-4-yl)(methyl)amino)methyl)-6-fluoro-1-oxoisoindolin-2-yl)piperidine-2,6-dione]",IC50,"SR; Table 15, ALK inhibitor based",< 50 nM
same,IC50,"MDA-MB-231; Table 15, ALK inhibitor based",100 to 500 nM
same,IC50,"HCC827; Table 15, ALK inhibitor based",100 to 500 nM
same,IC50,"Mino; Table 15, ALK inhibitor based",5000 to 10000 nM
same,IC50,PC-9,100 to 500 nM
"O=C1CCC(N2Cc3cc(CN4CCC(n5cc(NC(=O)c6cnn7ccc(N8CCOCC8)nc67)c(C(F)F)n5)CC4)cc(F)c3C2=O)C(=O)N1 (centres unmarked) [GT-03812, N-(3-(difluoromethyl)-1-(1-((2-(2,6-dioxopiperidin-3-yl)-7-fluoro-1-oxoisoindolin-5-yl)methyl)piperidin-4-yl)-1H-pyrazol-4-yl)-5-morpholinopyrazolo[1,5-a]pyrimidine-3-carboxamide]",IC50,SU-DHL-4; Homo sapiens,1000 to 5000 nM
same,IC50,"SW620; Homo sapiens, SW-620",1000 to 5000 nM
same,IC50,Mino; [4],100 to 500 nM
same,IC50,MV-4-11,100 to 500 nM
"O=C1CCC(N2C(=O)c3ccc(CN4CCC(n5cc(NC(=O)c6cnn7ccc(N8CCOCC8)nc67)c(C(F)F)n5)CC4)cc3C2=O)C(=O)N1 (centres unmarked) [GT-03815, N-(3-(difluoromethyl)-1-(1-((2-(2,6-dioxopiperidin-3-yl)-1,3-dioxoisoindolin-5-yl)methyl)piperidin-4-yl)-1H-pyrazol-4-yl)-5-morpholinopyrazolo[1,5-a]pyrimidine-3-carboxamide]",IC50,SU-DHL-4; Homo sapiens,5000 to 10000 nM
same,IC50,Mino; [4],1000 to 5000 nM
"CC(C)Nc1cc(-n2ccc3cc(C#N)cnc32)ncc1C(=O)N[C@H]1CC[C@H](C(=O)NCc2ccc3c(c2)CN(C2CCC(=O)NC2=O)C3=O)CC1 (some centres unmarked) [GT-04077, 6-(5-cyano-1H-pyrrolo[2,3-b]pyridin-1-yl)-N-((1r,4r)-4-(((2-(2,6-dioxopiperidin-3-yl)-1-oxoisoindolin-5-yl)methyl)carbamoyl)cyclohexyl)-4-(isopropylamino)nicotinamide]",IC50,SU-DHL-4,500 to 1000 nM
same,IC50,SW620,100 to 500 nM
same,IC50,CCRF-CEM; [4],< 50 nM
same,IC50,CAL-62,< 50 nM
same,IC50,Jurkat,< 50 nM
same,IC50,"LNcap; Table 19, IRAK4 inhibitor based, Lncap, read-out: IC50 inhibiting proliferation of tumor cells, Lncap",100 to 500 nM
"O=C1CCC(N2Cc3c(ccc(CN4CCC(n5cc(NC(=O)c6coc(-c7ccnc(NCC(F)(F)F)c7)n6)c(C(F)F)n5)CC4)c3F)C2=O)C(=O)N1 (centres unmarked) [GT-04098, N-(3-(difluoromethyl)-1-(1-((2-(2,6-dioxopiperidin-3-yl)-4-fluoro-1-oxoisoindolin-5-yl)methyl)piperidin-4-yl)-1H-pyrazol-4-yl)-2-(2-((2,2,2-trifluoroethyl)amino)pyridin-4-yl)oxazole-4-carboxamide]",IC50,SU-DHL-4; Homo sapiens,< 50 nM
same,IC50,"SW620; Homo sapiens, SW-620",< 50 nM
same,IC50,"CCRF-CEM; Homo sapiens, Table 19, IRAK4 inhibitor based",< 50 nM
same,IC50,CAL-62; Homo sapiens,< 50 nM
same,IC50,Jurkat; Homo sapiens,< 50 nM
same,IC50,"LNcap; Homo sapiens, Table 19, IRAK4 inhibitor based, Lncap, read-out: IC50 inhibiting proliferation of tumor cells, Lncap",< 50 nM
